Measured values as given in ChEMBL document CHEMBL1201862, “PubChem BioAssay data set” (2004).
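How tested: cells in 96-well plates exposed to compound for 48 hours at five concentrations. Here, GI50 denotes the concentration required for 50% inhibition of growth.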 Calls of active or inactive are those of the source. Rule as the data show it: active = GI50 up to about 1.1 µM and inactive = higher.

Tests used:
Experiment in all cases: growth of human tumour cells (NCI), 48 h
[1] = test system: DLD-1
[2] = test system: DMS-114
[3] = test system: DMS-273
[4] = test system: HOP-18
[5] = test system: KM-20L2
[6] = test system: M19-MEL
[7] = test system: RXF 631
[8] = test system: SNB-78
[9] = test system: XF498

Measured: GI50

CCCCCCCCCCCCCC(=O)CBr
inactive: [1] 11.7 µM | [2] 3.9 µM | [3] > 10 µM | [4] 14.7 µM | [5] 15.6 µM | [6] 9.25 µM | [7] 16.3 µM | [8] 14.2 µM

COC(=O)[C@@H]1CCCCC[C@H]2C(CO)=C(C)C(=O)C12 (some centres undefined)
inactive: [1] > 100 µM | [2] > 100 µM | [3] > 100 µM | [4] > 100 µM | [5] > 100 µM | [6] > 100 µM | [8] > 100 µM | [9] > 100 µM

O=C(CC(=O)C(=O)Nc1ccccc1)CC(c1ccccc1)c1c(O)c2ccccc2oc1=O (centres undefined)
inactive: [1] > 100 µM | [2] > 100 µM | [3] > 100 µM | [4] > 100 µM | [5] > 100 µM | [6] > 100 µM | [7] > 100 µM

C[N+](C)(C)CC1CCC/C1=N/O (centres undefined)
inactive: [1] > 100 µM | [2] 20 µM | [3] 60.7 µM | [4] > 100 µM | [5] 17.8 µM | [6] 41 µM | [8] > 100 µM | [9] 1.68 µM

CCN1c2ccccc2C(C(SC)S(=O)(=O)c2ccc(C)cc2)c2c1[nH]c(=O)n(C)c2=O (centres undefined)
inactive: [1] > 100 µM | [2] > 100 µM | [3] > 100 µM | [4] 22.9 µM | [6] > 100 µM | [8] > 100 µM | [9] > 100 µM

NCCCNCCCCN(CCCN)/[N+]([O-])=N\O
inactive: [1] > 100 µM | [2] > 100 µM | [3] > 100 µM | [4] > 100 µM | [5] > 100 µM | [6] > 100 µM | [7] > 100 µM | [8] > 100 µM

C/C(=C\COc1ccc2ccc(=O)oc2c1)C1=CC(=O)C(C)(C)O1 [GEIPARVARIN]
inactive: [1] 2.26 µM | [2] 4.19 µM | [3] 4.42 µM | [4] 66.7 µM | [5] 3.39 µM | [6] 4.61 µM | [8] 4.15 µM | [9] 4.1 µM

Cc1c(-c2cc(-c3ccccc3)n[nH]c2=O)c2ccccc2n1C
inactive: [1] > 100 µM | [2] > 100 µM | [3] > 100 µM | [4] 71.3 µM | [5] > 100 µM | [6] > 100 µM | [8] > 100 µM | [9] > 100 µM

C=C1C(OC(=O)/C=C/c2ccccc2)CC(OC(C)=O)C2(C)C1CC1CC(OC(C)=O)C(C)=C(C(OC(C)=O)C2OC(C)=O)C1(C)C (centres undefined)
inactive: [2] 5.97 µM | [3] 4.2 µM | [4] > 100 µM | [5] > 100 µM | [6] > 100 µM | [7] > 100 µM | [8] > 100 µM
